The numbers were not newly measured in patent publication US6887842B1, “Modulating a pharmacokinetic property of a drug by administering a bifunctional molecule containing the drug” (The Board of Trustees of the Leland Stanford Junior …, priority 1999, dated 2005), which cites them from elsewhere.

Like-named read-outs stand apart in the source and are kept apart here.

For orientation: half-life means the time needed for the level to fall by half in the phase considered.

The conditions of series [1]: in vivo.
For series [2], the target named is albumin (Homo sapiens, UniProt P02768).
For series [3] the following is noted: in vivo. This is another data set of the same source.
The conditions of series [4]: in vivo. The source holds these as a separate data set.

Sequence of albumin (P02768 25-609, species assumed): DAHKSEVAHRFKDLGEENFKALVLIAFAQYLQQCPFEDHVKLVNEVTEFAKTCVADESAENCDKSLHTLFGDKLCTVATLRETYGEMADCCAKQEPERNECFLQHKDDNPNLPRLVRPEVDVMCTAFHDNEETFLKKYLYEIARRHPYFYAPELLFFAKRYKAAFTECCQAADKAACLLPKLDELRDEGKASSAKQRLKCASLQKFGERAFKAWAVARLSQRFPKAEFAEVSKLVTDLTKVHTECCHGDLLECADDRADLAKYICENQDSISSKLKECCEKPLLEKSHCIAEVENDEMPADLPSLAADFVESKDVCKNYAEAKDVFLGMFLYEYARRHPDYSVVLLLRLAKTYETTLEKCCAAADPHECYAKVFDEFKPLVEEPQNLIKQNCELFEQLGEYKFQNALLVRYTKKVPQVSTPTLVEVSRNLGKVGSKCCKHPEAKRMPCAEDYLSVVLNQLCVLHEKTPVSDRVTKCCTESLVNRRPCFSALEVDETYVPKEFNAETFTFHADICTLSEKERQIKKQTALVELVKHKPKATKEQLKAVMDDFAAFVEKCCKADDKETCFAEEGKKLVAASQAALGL

As for `Cc1ccc2nc(N)[nH]c(=O)c2c1Sc1ccncc1` [AG 337], in series [1], the half-life is 2 to 3 h.

As for `COc1ccc2cc([C@H](C)C(=O)O)ccc2c1` [naproxen], in series [2] (plasma), the “degree of binding to albumin” value is “extensive binding to albumin”.

For `CN(C)CCCN1c2ccccc2Sc2ccc(Cl)cc21` [chlorpromazine], the “degree of binding to albumin” value in series [2] (plasma) is “extensively bound to albumin”.

In the case of `C=CCN1CC[C@]23c4c5ccc(O)c4O[C@H]2C(=O)CC[C@@]3(O)[C@H]1C5` [naloxone], the hepatic first-pass clearance entry in series [3] is recorded as “extensive hepatic first-pass clearance”.

Regarding `Cc1noc(NS(=O)(=O)c2ccc(N)cc2)c1C` [Sulfisoxazole], the “distribution (extracellular space)” value in series [4] was “found almost exclusively in the extracellular space”. For the same compound, the “degree of binding to albumin” value in series [2] is “extensively bound to albumin”.

On to `CC[C@H](C)C(=O)O[C@H]1C[C@H](O)C=C2C=C[C@H](C)[C@H](CC[C@@H](O)C[C@@H](O)CC(=O)O)[C@H]21` [pravastatin], for which the hepatic first-pass clearance entry in series [3] is given as “extensive hepatic first-pass clearance”.

For the compound `CC[C@H](C)C(=O)O[C@H]1C[C@@H](C)C=C2C=C[C@H](C)[C@H](CC[C@@H]3C[C@@H](O)CC(=O)O3)[C@H]21` [lovastatin], the hepatic first-pass clearance entry in series [3] was “extensive hepatic first-pass clearance”.

Turning to FK506, the half-life in series [1] was 30 h.

Consider `COc1ccc([C@@H]2Sc3ccccc3N(CCN(C)C)C(=O)[C@@H]2OC(C)=O)cc1` [diltiazem], for which the hepatic first-pass clearance result in series [3] was “extensive hepatic first-pass clearance”.

With `Sc1ncnc2nc[nH]c12` [mercaptopurine], the hepatic first-pass clearance entry in series [3] is on record as “extensive hepatic first-pass clearance”.

`CO[C@H]1C[C@@H]2CC[C@@H](C)[C@@](O)(O2)C(=O)C(=O)N2CCCC[C@H]2C(=O)O[C@H]([C@H](C)C[C@@H]2CC[C@@H](O)[C@H](OC)C2)CC(=O)[C@H](C)/C=C(\C)[C@@H](O)[C@@H](OC)C(=O)[C@H](C)C[C@H](C)/C=C/C=C/C=C/1C` [rapamycin]: in series [1], the half-life is 60 h.
